Measurements reported in the NIST ThermoML archive (doi:10.1016/j.jct.2013.12.010).

Test: cn = amount concentration of the nth substance listed, in mol/dm3
Settings: 298.15 K, 101 kPa, Liquid, Taylor dispersion method

Row | binary diffusion coefficient (c1 = 0.005) [m2/s] | binary diffusion coefficient (c1 = 0.1) [m2/s] | Compound
1 | 6.2e-10 | – | N[C@@H](Cc1ccc(O)c(O)c1)C(=O)O [L-3,4-dihydroxyphenylalanine] + O
2 | 2.99e-09 | 2.9e-09 | Cl [hydrogen chloride] + O
